# Experimental data reported in ChEMBL document CHEMBL1201862, “PubChem BioAssay data set” (2004).
# The source made the active and inactive calls. Cut-off read from the data, not from the text of the source, for most assays here: actives have a measured EC50 and inactives only a lower limit.
# How the values were obtained:
# [1] = biological target: T1, Rac GTPase-activating protein 1 (Homo sapiens, UniProt Q9H0H5); test: blockers of MgcRacGAP-driven Rac1 GTP hydrolysis – biochemical, ADP Hunter fluorescence, primary and confirmatory, confirmation (AID 624330); format: functional
# T1 sequence (Q9H0H5 whole entry): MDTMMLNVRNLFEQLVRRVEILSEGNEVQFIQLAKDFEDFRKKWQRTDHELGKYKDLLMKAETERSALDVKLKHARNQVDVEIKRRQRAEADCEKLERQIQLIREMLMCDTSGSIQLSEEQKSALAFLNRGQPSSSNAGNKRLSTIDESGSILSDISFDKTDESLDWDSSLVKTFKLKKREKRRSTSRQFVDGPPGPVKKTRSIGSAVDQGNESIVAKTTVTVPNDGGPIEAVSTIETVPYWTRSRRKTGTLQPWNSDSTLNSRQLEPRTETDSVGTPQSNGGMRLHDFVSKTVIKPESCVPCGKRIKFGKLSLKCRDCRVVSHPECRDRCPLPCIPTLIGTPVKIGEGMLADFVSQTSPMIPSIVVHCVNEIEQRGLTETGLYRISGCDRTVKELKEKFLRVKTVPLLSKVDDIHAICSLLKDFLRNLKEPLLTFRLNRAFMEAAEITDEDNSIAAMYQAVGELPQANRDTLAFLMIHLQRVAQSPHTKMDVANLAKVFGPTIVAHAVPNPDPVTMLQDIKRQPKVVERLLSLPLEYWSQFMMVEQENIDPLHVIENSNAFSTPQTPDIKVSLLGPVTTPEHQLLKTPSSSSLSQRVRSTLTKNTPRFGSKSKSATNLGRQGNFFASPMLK
# [2] = viability of HCT116 lacking mutant beta-catenin – cell-based, human colon tumor, dose response (AID 1045); format: functional;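 note: HCT116 colon tumor cells with beta catenin knocked out; cells exposed to compound for 60 hours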
# [3] = test system: H4; test: Luminescence Cell-Based Dose Response HTS to Identify Activators of 5'UTR Stem-Loop Driven Prion Protein mRNA Translation in H4 Neuroglioblastoma Cells. [Related pubchem assays: 1829 (Project Summary), 1814 (Primary HTS)]; format: functional; settings: Homo sapiens
# [4] = Luminescence Cell-Based Dose Confirmation HTS to Identify Activators of 5'UTR Stem-Loop Driven Alpha-Synuclein mRNA Translation in H4 Neuroglioblastoma Cells. [Related pubchem assays: 1829 (Project Summary), 1814 (Primary HTS)]; format: functional
# [5] = Luminescence Cell-Based Dose Response HTS to Identify Activators of Luciferase Translation or Activity in H4 […] Cells. [Related pubchem assays: 1829 (Project Summary), 1814 (Primary HTS)]; format: functional
# [6] = biological target: T2, Corticotropin-releasing factor receptor 2/Corticotropin-releasing factor-binding protein (Homo sapiens, UniProt P24387+Q13324); test: Dose Response confirmation of uHTS hits for small molecule antagonists of the CRF-binding protein and CRF-R2 receptor complex.; format: functional; settings: read-out: IC50_Mean
# T2 sequence (Q13324 whole entry): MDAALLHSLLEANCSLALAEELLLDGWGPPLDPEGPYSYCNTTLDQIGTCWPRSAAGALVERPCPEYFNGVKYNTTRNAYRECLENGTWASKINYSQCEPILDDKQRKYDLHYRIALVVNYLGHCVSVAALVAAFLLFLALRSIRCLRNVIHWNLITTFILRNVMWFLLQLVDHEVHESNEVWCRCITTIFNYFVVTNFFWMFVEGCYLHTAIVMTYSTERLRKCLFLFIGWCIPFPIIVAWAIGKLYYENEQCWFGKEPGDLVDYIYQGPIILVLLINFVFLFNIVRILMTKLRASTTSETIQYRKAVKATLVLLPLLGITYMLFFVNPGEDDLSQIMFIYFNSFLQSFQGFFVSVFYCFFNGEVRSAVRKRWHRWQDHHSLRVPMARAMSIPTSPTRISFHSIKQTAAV
# T2 sequence (P24387 whole entry): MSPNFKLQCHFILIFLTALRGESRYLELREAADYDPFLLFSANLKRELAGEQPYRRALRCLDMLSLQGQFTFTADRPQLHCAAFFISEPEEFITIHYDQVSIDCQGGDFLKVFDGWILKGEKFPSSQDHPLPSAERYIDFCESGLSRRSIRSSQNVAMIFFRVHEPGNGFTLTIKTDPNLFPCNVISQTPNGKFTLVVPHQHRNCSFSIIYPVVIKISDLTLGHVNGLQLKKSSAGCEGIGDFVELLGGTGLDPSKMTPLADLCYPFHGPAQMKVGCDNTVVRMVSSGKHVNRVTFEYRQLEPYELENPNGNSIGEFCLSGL
# [7] = biological target: T2, Corticotropin-releasing factor receptor 2/Corticotropin-releasing factor-binding protein; test: activators of CRF receptor 2 with binding protein – uHTS hits, confirmation (AID 602473); format: functional; settings: read-out: EC50_Mean
# [8] = biological target: T3, Heat shock factor protein 1 (Mus musculus, UniProt P38532); test: decrease of HSF1-responsive luciferase luminescence – cell-based, NIH3T3, dose retest, confirmation (AID 2382); format: functional;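 note: NIH3T3 fibroblasts with HSF1-driven luciferase reporter stressed by proteasome inhibitor MG132; luminescence from HSF1-driven luciferase expression after 8 hours of MG132 stress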
# T3 sequence (P38532 whole entry): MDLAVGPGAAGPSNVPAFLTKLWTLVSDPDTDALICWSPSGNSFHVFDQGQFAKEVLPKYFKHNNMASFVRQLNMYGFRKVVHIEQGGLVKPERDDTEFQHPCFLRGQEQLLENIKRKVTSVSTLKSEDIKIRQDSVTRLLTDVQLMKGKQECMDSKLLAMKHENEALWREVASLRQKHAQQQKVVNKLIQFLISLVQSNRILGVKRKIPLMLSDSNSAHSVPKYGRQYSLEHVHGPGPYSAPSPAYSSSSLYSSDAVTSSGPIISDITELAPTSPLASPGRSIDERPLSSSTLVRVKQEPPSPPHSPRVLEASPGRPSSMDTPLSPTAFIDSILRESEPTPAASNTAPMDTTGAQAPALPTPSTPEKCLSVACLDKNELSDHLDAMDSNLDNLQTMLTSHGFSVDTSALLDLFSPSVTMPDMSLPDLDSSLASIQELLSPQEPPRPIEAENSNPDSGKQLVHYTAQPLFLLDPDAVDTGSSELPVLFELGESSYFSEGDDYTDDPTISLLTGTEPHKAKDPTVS
# [9] = viability of uninfected HEp-2 cells – cell-based, HTS, cytotoxicity control for RSV inhibitor project, dose response (AID 2410); format: functional; settings: human respiratory syncytial virus
# [10] = cells; format: functional, cell-based
# [11] = cells; format: functional, cell-based; remark: listed apart in the source
SMILES,EC50 [3],EC50 [4],EC50 [5],IC50 [6],EC50 [7],further results
COCCCNC(=O)/C(C#N)=C/c1c(N2CCN(c3ccc(OC)cc3)CC2)nc2c(C)cccn2c1=O,,,,,,IC50 [1]: 114 µM (active)
CN(C)c1ccc(NC(=O)COC(=O)CNC(=O)c2cccs2)cc1,,,,,,IC50 [1]: 45.6 µM (active)
Fc1ccc(CN2CCN(C(c3ccccc3)c3ccccc3)CC2)cc1,,,,,,IC50 [1]: 236 µM (active)
CCn1c(CNc2ccc(OC)cc2)nnc1SCC(=O)c1ccc(OC)cc1,,,,,,EC50 [2]: 470 µM (active)
Cc1cccc(-n2cnc3cc(C(=O)N4CCCCC4)ccc32)c1,13.9 µM (active),17.9 µM (active),7.6 µM (active),,,
O=C(O)c1cc(-c2ccccc2)nc(-c2ccccc2)c1,,,,> 47.1 µM (inactive),> 53 µM (inactive),
Cc1cc(C(c2nnnn2Cc2ccccc2)N2CCOCC2)c(C)n1-c1ccc2c(c1)OCO2 (stereo not given),35.6 µM (active),91.8 µM (active),> 120 µM (not active),,,
Cc1ccc(C)n1NC(=O)c1ccccc1O,,,,> 47.1 µM (inactive),> 53 µM (inactive),EC50 [8]: > 195 µM (not active)
COc1ccccc1C(=O)N1CCN(Cc2cccnc2)CC1,,,,,,IC50 [1]: 101 µM (active)
N#C/C(=C\C1CC=CCC1)c1nc2ccccc2[nH]1 (stereo not given),23.7 µM (active),21.9 µM (active),26.3 µM (active),,,CC50 [9]: 23.4 µM (active)
Cc1ccc(Cn2nc(-c3ccccc3)nc2-c2ccccc2)cc1,17.9 µM (active),5.09 µM (active),20 µM (active),,,
O=C(/C=C/c1cccs1)Nc1ccc(N2CCOCC2)c(S(=O)(=O)Nc2ccccc2Cl)c1,22.2 µM (active),12 µM (active),46.3 µM (active),,,
COc1ccc(/C=C2\SC(=O)N(CCNC(=O)C3CCN(S(=O)(=O)c4cccs4)CC3)C2=O)cc1,19.1 µM (active),10.2 µM (active),36.7 µM (active),,,
CC(C)(C)c1cc(C(=O)N2CCN(c3ncccn3)CC2)ccn1,,,,,,EC50 [10]: > 350 µM (not active); EC50 [11]: > 350 µM (not active)
Cc1ccc(OCc2cc(C(=O)N3CCN(CC(=O)NC(C)C)CC3)no2)cn1,,,,> 47.1 µM (inactive),> 53 µM (inactive),
O=C(c1cnn2c1NC(c1ccco1)CC2C(F)(F)F)N1CCN(c2cccc(Cl)c2)CC1 (stereo not given),> 120 µM (not active),> 120 µM (not active),> 120 µM (not active),,,
O=C1/C(=C/c2nc3ccccc3[nH]2)SC(=S)N1c1ccccc1,,,,,,EC50 [10]: > 350 µM (not active); EC50 [11]: > 350 µM (not active)
N#Cc1cccc(NCC(=O)Nc2ccc3c(c2)OCCO3)c1,,,,> 47.1 µM (inactive),> 53 µM (inactive),
c1ccc(-c2ccc(OCCOCCn3cncn3)cc2)cc1,17.2 µM (inconclusive),30.9 µM (active),45.9 µM (active),,,

SMILES,EC50 [3],EC50 [4],EC50 [5],IC50 [6],EC50 [7],further results
CCn1cc(Br)c(-c2nc3ccccc3c(=O)n2N)n1,> 120 µM (not active),102 µM (active),8.16 µM (active),,,
O=C(CSc1nc(O)c2ccccc2n1)Nc1ccc(Br)cc1,,,,,,EC50 [10]: > 350 µM (not active); EC50 [11]: > 350 µM (not active)
O=C1N=C(N2CCCCC2)SC1=C1CCCCC1,21.5 µM (active),13.8 µM (active),5.25 µM (active),,,
CN(CCOC(=O)CN1C(=O)c2ccccc2C1=O)C1=NS(=O)(=O)c2ccccc21,> 120 µM (not active),> 120 µM (not active),46.8 µM (active),,,
Cc1csc(NC(=O)Cc2ccc(Br)cc2)n1,,,,> 47.1 µM (inactive),> 53 µM (inactive),
NC(=O)COC(=O)c1ccc(-c2ccc(O)cc2)cc1,,,,> 47.1 µM (inactive),> 53 µM (inactive),
Cc1cc(OC(C)C(=O)NNC(=O)Nc2ccc(F)cc2F)cc(C)c1Cl (stereo not given),,,,,,EC50 [10]: > 350 µM (not active); EC50 [11]: > 350 µM (not active)
O=C1/C(=C/c2ccccn2)SC(=S)N1CCc1ccccc1,19.4 µM (active),8.16 µM (active),10.9 µM (active),,,
CCOC(=O)c1cc(C)sc1NC(=O)CCC(=O)O,,,,> 47.1 µM (inactive),> 53 µM (inactive),
COc1ccc(NC2CCCN(C(=O)CCN3CCCO3)C2)cc1 (stereo not given),,,,,,IC50 [1]: 128 µM (active)
COc1ccc(C2C3=C(O)CC(C)(C)CC3=Nc3c2c(=O)n(C)c(=O)n3C)cc1OC (stereo not given),,,,> 47.1 µM (inactive),> 53 µM (inactive),
COc1ccc(C2=Nc3ccccc3C2(O)CCN2C(=O)c3ccccc3C2=O)cc1 (stereo not given),,,,> 47.1 µM (inactive),> 53 µM (inactive),
COc1ccc(NC2CCCN(C(=O)C3=NNC(=O)CC3)C2)cc1 (stereo not given),,,,,,IC50 [1]: 120 µM (active)
Cc1noc(C)c1NC(=O)Nc1ccc2c(c1)C(=O)N([C@H](C)CO)C[C@H](C)[C@@H](CN(C)S(=O)(=O)c1ccc(F)cc1)O2,,,,> 47.1 µM (inactive),> 53 µM (inactive),
CCOc1ccccc1C(=O)OCC(=O)NCC1CCCO1 (stereo not given),,,,> 47.1 µM (inactive),> 53 µM (inactive),
Cc1cn([C@H]2C[C@H](O)[C@@H](CNCC3=Cc4cc(O)ccc4OC3)O2)c(=O)[nH]c1=O,,,,,,IC50 [1]: 95.9 µM (active)
CCOc1ccccc1N(CC(=O)N/N=C/c1cc(Br)ccc1OC)S(C)(=O)=O,,,,,,EC50 [10]: > 350 µM (not active); EC50 [11]: > 350 µM (not active)
N#Cc1nc(Nc2cccc(Cl)c2)c2ncn(C3CCCC3)c2n1,,,,> 47.1 µM (inactive),> 53 µM (inactive),
